Measured values: article PMC6273978, “Synthesis and Pharmacological Evaluation of Novel Pleuromutilin Derivatives with Substituted Benzimidazole Moieties” (Molecules, 2016)
Converted amounts (≈) assume the structure as drawn.

Legend:
[1] = system: Staphylococcus vitulinus (S. vitulinus); assay: MIC testing, agar dilution method; type: cell-based; settings: Mammaliicoccus vitulinus, 36.5 °C, 24–48 h
From the text: (§1) The synthesized pleuromutilin derivatives 3 and 4a–l, with tiamulin fumarate used a as reference drug, were screened for their in vitro antibacterial activity against Escherichia coli (E. coli), Staphylococcus aureus (S. aureus), Methicillin-resistant Staphylococcus aureus (MRSA), Staphylococcus vitulinus (S. vitulinus), Staphylococcus warneri (S. warneri), and Staphylococcus haemolyticus (S. haemolyticus). The antibacterial activities are reported in Table 1 as the minimum inhibitory concentration (MIC) using the agar dilution method. The MICs of the 13 new pleuromutilin derivatives in vitro against E. coli ranged from 10 to 80 μg/mL; against S. aureus, MRSA, S. vitulinus, S. warneri, and S. haemolyticus ranged from 0.156 to 40 μg/mL, respectively.
(§2) The MIC for the synthesized compounds (3 and 4a–l) and tiamulin fumarate used as a reference drug were determined using the agar dilution method according to the National Committee for Clinical Laboratory Standards (NCCLS). Tested compounds were dissolved in 25%–40% DMSO to a solution with a concentration of 1280 µg/mL, whereas tiamulin fumarate was directly dissolved in 10 mL of distilled water at the same concentration as the tested compounds. All the solutions were then diluted twofold with sterile water to provide 11 dilutions (final concentration is 0.625 µg/mL). A 2 mL volume of the 2-fold serial dilution of each test compound/drug was incorporated into 18 mL of hot Muellere-Hinton agar medium. Inoculums, including five Gram (+), S. aureus, MRSA, S. vitulinus, S. warneri, S. haemolyticus, and one Gram (−), E. coli were prepared from blood slants and adjusted to approximately 10^5–10^6 CFU/mL with sterile saline (0.90% NaCl). A 10 µL amount of bacterial suspension was spotted onto Muellere-Hinton agar plates containing serial dilutions of the compounds/drug. The plates were incubated at 36.5 °C for 24–48 h. The same procedure was repeated in triplicate.

[2] = system: Staphylococcus haemolyticus (S. haemolyticus); assay: MIC testing, agar dilution method; type: cell-based; settings: 36.5 °C, 24–48 h
From the text: as §1, §2

[3] = system: Staphylococcus warneri (S. warneri); assay: MIC testing, agar dilution method; type: cell-based; settings: 36.5 °C, 24–48 h
From the text: as §1, §2

[4] = system: Staphylococcus aureus (S. aureus); assay: MIC testing, agar dilution method; type: cell-based; settings: 36.5 °C, 24–48 h
From the text: as §1, §2

[5] = system: Escherichia coli (E. coli); assay: MIC testing, agar dilution method; type: cell-based; settings: 36.5 °C, 24–48 h
From the text: as §1, §2

[6] = system: Methicillin-resistant Staphylococcus aureus (MRSA); assay: MIC testing, agar dilution method; type: cell-based; settings: 36.5 °C, 24–48 h
From the text: as §1, §2

S. vitulinus = assay: Oxford cup assay, zone of inhibition; type: cell-based, Staphylococcus vitulinus; settings: Mammaliicoccus vitulinus
Experimental: (§3) The Oxford cup assays were carried out to evaluate the antibacterial activities against the above-mentioned six bacterial strains. The zones of inhibition for two concentrations (320 and 160 μg/mL) of the synthetic compounds and tiamulin fumarate were measured. The results of Oxford cup assay correspond with that obtained by agar dilution method (MICs) as a whole.
(§4) The procedure for Oxford cup assays was the same as that previously reported. Briefly, inoculums were prepared in 0.9% saline using McFarland standard and spread uniformly on nutrient agar plates. The 320 and 160 µg/mL of all the tested compounds were added individually into the Oxford cups that were placed at equal distances above the agar surfaces. The zone of inhibition for each concentration was measured after a 24–36 h incubation at 37 °C. The same procedure was repeated in triplicate.

S. warneri = assay: Oxford cup assay, zone of inhibition; type: cell-based; settings: Staphylococcus warneri
Experimental: as §3, §4

S. aureus = assay: Oxford cup assay, zone of inhibition; type: cell-based; settings: Staphylococcus aureus
Experimental: as §3, §4

S. haemolyticus = assay: Oxford cup assay, zone of inhibition; type: cell-based; settings: Staphylococcus haemolyticus
Experimental: as §3, §4

E. coli = assay: Oxford cup assay, zone of inhibition; type: cell-based; settings: Escherichia coli
Experimental: as §3, §4

MRSA = assay: Oxford cup assay, zone of inhibition; type: cell-based; settings: Staphylococcus aureus
Experimental: as §3, §4

C=C[C@]1(C)C[C@@H](OC(=O)CSc2nc3ccc(NC(=O)c4ccccc4Cl)cc3[nH]2)[C@]2(C)[C@H](C)CC[C@]3(CCC(=O)[C@H]32)[C@@H](C)[C@@H]1O [Compound 4a, 14-O-((2-Chlorobenzamide-5-aminobenzimidazole-2-yl)thioacetyl) mutilin]
MIC [1]: 40 µg/mL (≈ 60.2 µM)
MIC [2]: 5 µg/mL (≈ 7.53 µM)
MIC [3]: 40 µg/mL (≈ 60.2 µM)
MIC [4]: 40 µg/mL (≈ 60.2 µM)
MIC [5]: 40 µg/mL (≈ 60.2 µM)
MIC [6]: 40 µg/mL (≈ 60.2 µM)
zone of inhibition at 160 µg/mL (S. vitulinus): 13.8 mm
zone of inhibition at 320 µg/mL (S. vitulinus): 19.2 mm
zone of inhibition at 160 µg/mL (S. warneri): 21.6 mm
zone of inhibition at 320 µg/mL (S. warneri): 22.4 mm
zone of inhibition at 160 µg/mL (S. aureus): 9.02 mm
zone of inhibition at 320 µg/mL (S. aureus): 12.4 mm
zone of inhibition at 160 µg/mL (S. haemolyticus): 20.4 mm
zone of inhibition at 320 µg/mL (S. haemolyticus): 24.9 mm
zone of inhibition at 160 µg/mL (E. coli): 0 mm
zone of inhibition at 320 µg/mL (E. coli): 11.3 mm
zone of inhibition at 160 µg/mL (MRSA): 15.9 mm
zone of inhibition at 320 µg/mL (MRSA): 20.2 mm

C=C[C@]1(C)C[C@@H](OC(=O)CSc2nc3ccc(NC(=O)c4cccc(Cl)c4)cc3[nH]2)[C@]2(C)[C@H](C)CC[C@]3(CCC(=O)[C@H]32)[C@@H](C)[C@@H]1O [Compound 4b, 14-O-((3-Chlorobenzamide-5-aminobenzimidazole-2-yl)thioacetyl) mutilin]
MIC [1]: 10 µg/mL (≈ 15.1 µM)
MIC [2]: 20 µg/mL (≈ 30.1 µM)
MIC [3]: 20 µg/mL (≈ 30.1 µM)
MIC [4]: 40 µg/mL (≈ 60.2 µM)
MIC [5]: 80 µg/mL (≈ 120 µM)
MIC [6]: 20 µg/mL (≈ 30.1 µM)
zone of inhibition at 160 µg/mL (S. vitulinus): 20.5 mm
zone of inhibition at 320 µg/mL (S. vitulinus): 23.8 mm
zone of inhibition at 160 µg/mL (S. warneri): 16.5 mm
zone of inhibition at 320 µg/mL (S. warneri): 19.5 mm
zone of inhibition at 160 µg/mL (S. aureus): 12.3 mm
zone of inhibition at 320 µg/mL (S. aureus): 15.8 mm
zone of inhibition at 160 µg/mL (S. haemolyticus): 20.3 mm
zone of inhibition at 320 µg/mL (S. haemolyticus): 20.4 mm
zone of inhibition at 160 µg/mL (E. coli): 10.4 mm
zone of inhibition at 320 µg/mL (E. coli): 0 mm
zone of inhibition at 160 µg/mL (MRSA): 17.3 mm
zone of inhibition at 320 µg/mL (MRSA): 21.7 mm

C=C[C@]1(C)C[C@@H](OC(=O)CSc2nc3ccc(NC(=O)c4ccc(Cl)cc4)cc3[nH]2)[C@]2(C)[C@H](C)CC[C@]3(CCC(=O)[C@H]32)[C@@H](C)[C@@H]1O [Compound 4c, 14-O-((4-Chlorobenzamide-5-aminobenzimidazole-2-yl)thioacetyl) mutilin]
MIC [1]: 40 µg/mL (≈ 60.2 µM)
MIC [2]: 40 µg/mL (≈ 60.2 µM)
MIC [3]: 40 µg/mL (≈ 60.2 µM)
MIC [4]: 40 µg/mL (≈ 60.2 µM)
MIC [5]: 40 µg/mL (≈ 60.2 µM)
MIC [6]: 40 µg/mL (≈ 60.2 µM)
zone of inhibition at 160 µg/mL (S. vitulinus): 20.5 mm
zone of inhibition at 320 µg/mL (S. vitulinus): 21.8 mm
zone of inhibition at 160 µg/mL (S. warneri): 19.2 mm
zone of inhibition at 320 µg/mL (S. warneri): 22.2 mm
zone of inhibition at 160 µg/mL (S. aureus): 14.3 mm
zone of inhibition at 320 µg/mL (S. aureus): 16.5 mm
zone of inhibition at 160 µg/mL (S. haemolyticus): 16.9 mm
zone of inhibition at 320 µg/mL (S. haemolyticus): 20.9 mm
zone of inhibition at 160 µg/mL (E. coli): 17.2 mm
zone of inhibition at 320 µg/mL (E. coli): 17.7 mm
zone of inhibition at 160 µg/mL (MRSA): 14.6 mm
zone of inhibition at 320 µg/mL (MRSA): 15.5 mm

C=C[C@]1(C)C[C@@H](OC(=O)CSc2nc3ccc(NC(=O)c4ccccc4C)cc3[nH]2)[C@]2(C)[C@H](C)CC[C@]3(CCC(=O)[C@H]32)[C@@H](C)[C@@H]1O [Compound 4d, 14-O-((2-Methylbenzamide-5-aminobenzimidazole-2-yl)thioacetyl) mutilin]
MIC [1]: 40 µg/mL (≈ 62.1 µM)
MIC [2]: 40 µg/mL (≈ 62.1 µM)
MIC [3]: 40 µg/mL (≈ 62.1 µM)
MIC [4]: 10 µg/mL (≈ 15.5 µM)
MIC [5]: 80 µg/mL (≈ 124 µM)
MIC [6]: 40 µg/mL (≈ 62.1 µM)
zone of inhibition at 160 µg/mL (S. vitulinus): 18.2 mm
zone of inhibition at 320 µg/mL (S. vitulinus): 19.1 mm
zone of inhibition at 160 µg/mL (S. warneri): 20.6 mm
zone of inhibition at 320 µg/mL (S. warneri): 22.3 mm
zone of inhibition at 160 µg/mL (S. aureus): 14.7 mm
zone of inhibition at 320 µg/mL (S. aureus): 17.8 mm
zone of inhibition at 160 µg/mL (S. haemolyticus): 17.4 mm
zone of inhibition at 320 µg/mL (S. haemolyticus): 18.4 mm
zone of inhibition at 160 µg/mL (E. coli): 0 mm
zone of inhibition at 320 µg/mL (E. coli): 0 mm
zone of inhibition at 160 µg/mL (MRSA): 16.3 mm
zone of inhibition at 320 µg/mL (MRSA): 19.7 mm
